Test results as given in PMC10876669, “Substrate promiscuity of inositol 1,4,5-trisphosphate kinase driven by structurally-modified ligands and active site plasticity” (Nature Communications, 2024).
Values joined by “and” are separate entries in the source; they are usually repeats but may differ in a detail not shown here. Equal values may be shown once.

How the values were obtained:
[1] = biological target: T1, IP3K-KD (human IP3K-KD A isoform, residues 187–461) (Homo sapiens, UniProt P23677); test: Fluorescence thermal shift analysis (Tycho NT.6, inflection temperature Ti); assay type: binding; settings: for Ti, transition 1 (mean inflection temperature) / Ti, transition 2 (mean inflection temperature): 10 μM IP3K-KD, 100 μM chiral or 200 μM racemic ligand, AMP-PNP or ADP, 100 μM MgCl2; for Ti, transition 1 (mean inflection temperature) / Ti, transition 2 (mean inflection temperature) / ΔTi, transition 1 / ΔTi, transition 2: mean ± SD, n=3; for ΔTi, transition 1: Ti minus Ti of apo IP3K-KD (44.4); for ΔTi, transition 2: Ti minus Ti of apo IP3K-KD (53.8); for Transition 1 Ti, individual measurement / Transition 2 Ti, individual measurement: source data of Fig. 6b/6c, single replicates; for Transition 1 Dti (Ti-Ti Apo) / Transition 1 Ti Mean / Transition 2 DTi (Ti-Ti Apo) / Transition 2 Ti Mean: source data of Fig. 6c, N 3; for Binding to IP3K (in words): Fig. 6b,c; for Stabilization of IP3K-KD by ligand (in words): thermal shift, Fig. 6c
T1 construct: human IP3K-KD A isoform (residues 187–461); GST (cleaved yes); made in house; host or cells: Escherichia coli BL21 star (DE3)
Experimental: (§1) A construct encoding human IP3K-KD A isoform (residues 187–461) into pOPTG vector was used[16]. The protein was expressed in Escherichia coli BL21 star (DE3) strain. Cells were grown at 37 °C to OD600 = 1.0 then induced with 0.4 mM IPTG for 18 h at 16 °C. Protein purification was performed by adapting the reported protocol. Cells were resuspended in buffer A (10 mM Tris pH 7.5 [4 °C], 200 mM NaCl and 2 mM DTT) and disrupted by sonication. Clarified cell lysate was diluted 1/4 in buffer B (10 mM Tris pH 7.5 [4 °C] and 2 mM DTT) and loaded into a 5 mL HiTrap heparin column (GE Healthcare) washed by buffer C (20 mM Tris pH 7.5, 50 mM NaCl and 2 mM DTT), and eluted with a 0.05 M–1 M salt gradient. The eluted sample was subsequently loaded on to a 5 mL glutathione–Sepharose HP column (GE Healthcare), washed with buffer A and eluted with reduced glutathione 10 mM (Sigma-Aldrich) in buffer A. The GST tag was cleaved with home-made TEV (tobacco etch virus) protease overnight at 4 °C, (1:40 TEV/protein mass ratio). After glutathione removal with a PD10 column, the cleaved protein was further purified using a 5 mL glutathione–Sepharose HP column (GE Healthcare) followed by gel filtration on a 16/600 Superdex200 (GE Healthcare) column equilibrated in buffer D (20 mM Tris pH 7.5 [4 °C], 0.05 M (NH4)2SO4 and 2 mM DTT). Protein samples were analyzed by SDS/PAGE, concentrated around 18 mg/mL and stored at −80 °C until use.
Thermal protein denaturation was documented by recording intrinsic protein fluorescence at 330 and 350 nm wavelengths. The fluorescence recorded in each thermal run is plotted as 350/330 nm ratio and used to calculate the Inflection Temperature (Ti). Ti is the temperature at which a protein undergoes a transition in its folding state. This calculation is performed automatically by the Tycho NT.6 software. The protocol optimized for this procedure, involves a heating time of 2 min, a sample volume of 10 μl placed in a very thin capillary, and a temperature ramp from 35 °C (308 K) to 95 °C (368 K). For the experiment, IP3K-KD was diluted with buffer D to achieve a concentration of 0.31 mg/mL (10 μM). It was then mixed with 100 μM of chiral ligands or 200 μM of racemic ligands (all synthesized as stated in this work except InsP3 and InsP4 that were commercial from Avanti Polar Lipids), AMP-PNP (substrate analogues) or ADP (product-like ligands) and 100 μM MgCl2. Microsoft Excel was used to calculate and plot ΔTi values and standard deviations.

[2] = biological target: T1, IP3K-KD (human IP3K-KD A isoform, residues 187–461); test: Ligand displacement assay: fluorescence polarization (anisotropy) of 2-FITC-InsP3/IP3K-KD complex; assay type: binding; settings: for IC50: 100 nM IP3K-KD, 2 nM 2-FITC-InsP3, 20 mM HEPES pH 7.5, 1 mM EDTA, 50 mM KCl, n=4 replicates, 5-s and 5-p racemic, read-out: IC50, displacement of 2-FITC-InsP3 from IP3K-KD; for Kd: estimated Ki (Kd) from IC50 with [2-FITC-InsP3] 2 nM and its Kd 68 nM, read-out: Kd inferred from IC50 (Cheng and Prusoff)
Experimental: as §1
Binding of a competing/displacing ligand to protein is observed as a decrease in the polarization (anisotropy) of 2-FITC-InsP3. A comparison of the strength of binding of enzyme substrates, analogues and products to IP3K-KD was obtained by measurement of fluorescence polarization (here anisotropy) of 2-FITC-InsP3/IP3K-KD complex. Experimentally, 100 nM IP3K-KD was mixed with 2 nM 2-FITC-InsP3[37] in 20 mM HEPES pH 7.5, 1 mM EDTA and 50 mM KCl with the addition of displacing compounds over a range of 1 nM–50 μM. Assays were analyzed using a ClarioSTAR plate reader and IC50 values determined from fit of the data to a 4-parameter logistic as described. From IC50 values, we have estimated the Ki (Kd) values for the displacing ligands using the equation of Cheng and Prusoff:[69]1 Ki=IC50/1+L/Kd where [L] is the ligand (2-FITC-InsP3) concentration and Kd the dissociation constant for its interaction with IP3K-KD. […] Consequently, the Ki values for the displacing ligands differ trivially from their IC50 values.

[3] = biological target: T2, IP3K-KD (Homo sapiens, UniProt P23677); test: HPLC analysis of IP3K-KD reaction mixtures (substrate test); assay type: biochemical; settings: 150 nM IP3K-KD, 500 μM analogue, 1 mM ATP, 2 h at 30 °C, Fig. 7a
T2 construct: human IP3K-KD A isoform (residues 187–461); GST (cleaved yes); made in house; host or cells: Escherichia coli BL21 star (DE3)
Experimental: as §1

T1 sequence (P23677 187-461): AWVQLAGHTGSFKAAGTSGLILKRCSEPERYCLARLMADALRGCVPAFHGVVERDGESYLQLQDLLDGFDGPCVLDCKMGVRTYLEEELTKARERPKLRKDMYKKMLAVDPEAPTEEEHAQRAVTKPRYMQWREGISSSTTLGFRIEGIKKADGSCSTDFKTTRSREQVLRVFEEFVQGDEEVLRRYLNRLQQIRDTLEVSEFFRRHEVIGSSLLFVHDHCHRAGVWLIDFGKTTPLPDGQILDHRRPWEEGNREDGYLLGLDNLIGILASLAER
T2 sequence (P23677 187-461): as above

Structure (SMILES)	Ti, transition 1 (mean inflection temperature) [1]	Ti, transition 2 (mean inflection temperature) [1]	ΔTi, transition 1 [1]	ΔTi, transition 2 [1]	Transition 1 Ti, individual measurement [1]	Transition 2 Ti, individual measurement [1]	Transition 1 Dti (Ti-Ti Apo) [1]	Transition 1 Ti Mean [1]	Transition 2 DTi (Ti-Ti Apo) [1]	Transition 2 Ti Mean [1]	IC50 [2]	Kd [2] [nM]	Ability to act as IP3K substrate (in words) [3]	Binding to IP3K (in words) [1]	Stabilization of IP3K-KD by ligand (in words) [1]
O=P(O)(O)O[C@@H]1[C@@H](O)[C@H](OP(=O)(O)O)[C@@H](OP(=O)(O)O)[C@H](OP(=O)(O)O)[C@H]1O [1-p, scyllo-inositol 1,2,3,5-tetrakisphosphate]	54.7 ± 0.2 ºC	59.9 ± 0.2 ºC	10.3 ± 0.3 ºC	6.1 ± 0.2 ºC	54.7 and 54.9 and 54.6	59.7 and 60.0 and 59.9	10.3	54.7	6.1	59.9	51 nM	50			
O=P(O)(O)O[C@@H]1[C@@H](O)[C@H](O)[C@@H](OP(=O)(O)O)[C@H](OP(=O)(O)O)[C@H]1O [1-s, L-scyllo-inositol 1,2,4-trisphosphate]	55.6 ± 0.1 ºC	60.7 ± 0.2 ºC	11.2 ± 0.3 ºC	6.9 ± 0.2 ºC	55.7 and 55.6 (2×)	60.8 and 60.5 and 60.7	11.2	55.6	6.9	60.7	36 nM	35	is a good IP3K substrate		
O=P(O)(O)O[C@@H]1[C@@H](O)[C@@H](O)[C@@H](OP(=O)(O)O)[C@H](OP(=O)(O)O)[C@H]1O [2-s, D-myo-inositol 1,4,6-trisphosphate]	53.1 ± 0.3 ºC	58.4 ± 0.2 ºC	8.7 ± 0.4 ºC	4.6 ± 0.2 ºC	53.1 and 52.8 and 53.3	58.2 and 58.5 and 58.4	8.7	53.1	4.6	58.4					
O=P(O)(O)O[C@@H]1[C@@H](O)[C@H](OP(=O)(O)O)C[C@@H](O)[C@H]1OP(=O)(O)O [3-s, D-3-deoxy-myo-inositol 1,4,6-trisphosphate]	52.0 ± 0.2 ºC	57.4 ± 0.1 ºC	7.6 ± 0.3 ºC	3.6 ± 0.2 ºC	52.1 and 51.8 and 52.0	57.4 (2×) and 57.5	7.6	52.0	3.6	57.4					
O=P(O)(O)O[C@@H]1[C@H](O)[C@@H](O)[C@@H](OP(=O)(O)O)[C@H](OP(=O)(O)O)[C@H]1O [4-s, L-chiro-inositol 2,3,5-trisphosphate]	51.7 ± 0.1 ºC	57.3 ± 0.1 ºC	7.3 ± 0.3 ºC	3.5 ± 0.2 ºC	51.8 and 51.7 (2×)	57.2 and 57.3 (2×)	7.3	51.7	3.5	57.3					

The next lines start with results.

Ti, transition 1 (mean inflection temperature) [1]	Ti, transition 2 (mean inflection temperature) [1]	ΔTi, transition 1 [1]	ΔTi, transition 2 [1]	Transition 1 Ti, individual measurement [1]	Transition 2 Ti, individual measurement [1]	Transition 1 Dti (Ti-Ti Apo) [1]	Transition 1 Ti Mean [1]	Transition 2 DTi (Ti-Ti Apo) [1]	Transition 2 Ti Mean [1]	IC50 [2]	Kd [2] [nM]	Ability to act as IP3K substrate (in words) [3]	Binding to IP3K (in words) [1]	Structure (SMILES)	Stabilization of IP3K-KD by ligand (in words) [1]
52.9 ± 0.2 ºC	58.2 ± 0.2 ºC	8.5 ± 0.3 ºC	4.4 ± 0.2 ºC	52.8 and 52.9 and 53.1	58.1 (2×) and 58.4	8.5	52.9	4.4	58.2	140 nM and 139 nM	136			O=P(O)(O)O[C@@H]1[C@H](O)[C@H](O)[C@@H](OP(=O)(O)O)[C@H](OP(=O)(O)O)[C@H]1O [InsP3, D-myo-inositol 1,4,5-trisphosphate, reference compound]	
53.5 ± 0.2 ºC	58.8 ± 0.2 ºC	9.1 ± 0.4 ºC	5.0 ± 0.3 ºC	53.7 and 53.3 and 53.5	59.0 and 58.6 and 58.7	9.1	53.5	5.0	58.8	60 nM	58			O=P(O)(O)O[C@H]1[C@H](O)[C@@H](OP(=O)(O)O)[C@H](OP(=O)(O)O)[C@@H](OP(=O)(O)O)[C@H]1O [InsP4, D-myo-inositol 1,3,4,5-tetrakisphosphate, reference compound]	
44.2 ± 0.2 ºC	54.1 ± 0.1 ºC	-0.2 ± 0.3 ºC	0.3 ± 0.2 ºC	44.2 and 44.1 and 44.4	54.1 (2×) and 54.2	-0.167	44.2	0.333	54.1				do not, or barely, bind IP3K	CO[C@@H]1O[C@H](CO)[C@@H](O[C@H]2O[C@H](CO)[C@@H](OP(=O)(O)O)[C@H](OP(=O)(O)O)[C@H]2O)[C@H]1OP(=O)(O)O [compound 8, ribophostin]	failure to obtain crystal complexes or observe protein stabilization
44.5 ± 0.4 ºC	54.5 ± 0.1 ºC	0.1 ± 0.5 ºC	0.7 ± 0.2 ºC	44.2 and 44.9 and 44.5	54.5 (2×) and 54.4	0.133	44.5	0.667	54.5				do not, or barely, bind IP3K	CO[C@@H]1O[C@H](CO)[C@@H](O[C@H]2[C@H](O)[C@H](O)[C@@H](OP(=O)(O)O)[C@H](OP(=O)(O)O)[C@H]2O)[C@H]1OP(=O)(O)O [compound 9, D-chiro-inositol ribophostin]	failure to obtain crystal complexes or observe protein stabilization
